Assay results as given in ChEMBL document CHEMBL1158671, “Microbial transformations of hypolipemic E-guggulsterone” (J Nat Prod, 1998).
Activity calls are given as the source filed them. No cut-off for these calls is given here.

Legend:
Escherichia coli = assay: Antibacterial activity against Escherichia coli; format: functional, organism-based
Shigella boydii = assay: Antibacterial activity against Shigella boydii; format: functional, organism-based
Pseudomonas aeruginosa = assay: Antibacterial activity against Pseudomonas aeruginosa; format: functional, organism-based
[1] = test system: Corynebacterium diphtheriae; assay: Antibacterial activity against Corynebacterium diphtheriae; format: functional, organism-based
NCI-H226 = assay: Cytotoxicity against human NCI-H226 cells; format: functional, cell-based

SMILES | Activity (Escherichia coli) | Activity (Shigella boydii) | Activity (Pseudomonas aeruginosa) | Activity [1] | Activity (NCI-H226)
C/C=C1/C(=O)C[C@H]2[C@@H]3[C@@H](O)CC4=CC(=O)CC[C@]4(C)[C@H]3CC[C@]12C | Active | Active | Active | Active | –
C/C=C1/C(=O)C[C@H]2[C@@H]3CCC4=CC(=O)CC[C@]4(C)[C@H]3CC[C@]12C | inactive | inactive | inactive | inactive | Active
